Assay results as given in PMC12833874 (Journal of Medicinal Chemistry, 2025).
Like-named read-outs stand apart in the source and are kept apart here.

How the values were obtained:
[1] = target: T1, SNAP-NOPr (Homo sapiens, UniProt P41146); test: Confocal imaging of fluorescent ligand binding, live FlpIn CHO cells stably expressing SNAP-NOPr; format: cell-based; settings: for fluorescent ligand binding (confocal images): 1 μM, 30 min at 37 °C, live cells
T1 construct: expressed in transfected cells
T1 sequence (P41146 whole entry): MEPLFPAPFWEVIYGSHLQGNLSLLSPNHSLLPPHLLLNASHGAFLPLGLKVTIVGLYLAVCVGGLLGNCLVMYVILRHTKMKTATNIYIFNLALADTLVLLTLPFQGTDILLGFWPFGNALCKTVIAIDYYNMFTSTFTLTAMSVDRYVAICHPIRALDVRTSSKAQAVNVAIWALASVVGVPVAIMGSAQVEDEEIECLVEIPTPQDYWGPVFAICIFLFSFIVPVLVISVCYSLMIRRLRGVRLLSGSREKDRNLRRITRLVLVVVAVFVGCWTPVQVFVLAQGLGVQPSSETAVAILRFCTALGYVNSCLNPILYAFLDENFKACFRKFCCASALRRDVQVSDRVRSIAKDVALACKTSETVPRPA
Protocol: To first assess whether the library of fluorescent ligands (13a-h and 14h) can specifically label the NOPr, single time point confocal images of live FlpIn CHO cells stably expressing SNAP-NOPr were captured. Cells were incubated with fluorescent ligands 13a-h and 14h (1 μM) to assess the fluorescent ligand binding.
3 Single time point confocal images of live FlpIn CHO cells stably expressing SNAP-NOPr. Cells were labeled with SNAP-AF488 (cyan) to visualize SNAP-NOPr expression (a–d) and incubated for 30 min at 37 °C with fluorescent ligands 13e–h (1 μM) (magenta) to visualize fluorescent ligand binding (e-h).
For all experiments, live cell single time point confocal images were captured using a Zeiss Cell Discoverer 7 LSM 900 high-content automated confocal microscope. Two images per well were captured using a 10× objective and the Cy5 channel (650 λex, 673 λem), the AF488 (495λex, 520 λem) channel, and the CFP (433λex, 475 λem) channel. All cells were imaged in an imaging buffer containing (2 mM sodium pyruvate, 145 mM NaCl, 10 mM D-glucose, 5 mM KCl, 1 mM MgSO4·7H2O, 10 mM HEPES, 1.3 mM CaCl2 dihydrate, and 1.5 mM NaHCO3).
Stably expressing SNAP-NOPr FlpIn-CHO cells suspended in DMEM (D6421) (100 μL) were seeded (10,000 cells/well) into 96-well poly-D-lysine (PDL)-coated Greiner black polyester plates. Cells were incubated for 48 h at 37 °C and 5% CO2 prior to imaging.
Before measurement, the media were removed, and cells were washed with 90 μL of imaging buffer. Cells were then incubated with SNAP-AF488 (New England Biolabs) (0.5 μg·mL^–1) in imaging buffer for 30 min at 37 °C. After incubation, the SNAP-AF488 solution was aspirated and cells were rinsed twice with imaging buffer (90 μL). […] Cells were incubated for 30 min at 37 °C and 5% CO2 before the images were captured.

[2] = target: T2, NOPr (Homo sapiens, UniProt P41146); test: BRET G-protein activation (GPA) assay, Gαi2, agonist and antagonist mode, Flp-In-NOPr-CHO cells; format: cell-based; settings: for reduction in inhibitory potency from N-Boc congener to fluorescent ligand: 11g to 13g, 11h to 13h and 14h
T2 sequence (P41146 whole entry): as above
Protocol: The functional activity of congeners 11a-h was assessed in a bioluminescence resonance energy transfer (BRET) assay measuring NOPr activation of the Gαi2 G protein through release of Gβγ subunits in Flp-In-NOPr-Chinese hamster ovary (CHO) cells, as summarized in Figure a.
Data represent the mean ± SEM of n = 4 experiments performed in duplicate. (a) Illustrative representation of the GPA assayligand-induced receptor activation causes G protein dissociation, releasing a Venus-tagged Gβγ (acceptor) to interact with a membrane-localized c-terminus of G protein-coupled receptor kinase 3 (masGRK3ct) fused to a renilla luciferase enzyme (RLuc8) (donor). […] After a 10 min incubation with the R-Luc substrate coelenterazine and NOPr ligands, luminescence was measured to quantify GPA as a BRET ratio between acceptor λem 535 nm/donor λem 475 nm.
Flp-In CHO cells stably expressing SNAP-NOPr were transiently transfected with Gαi2 (2 μg), Gβ1-Venus (156–259)­(1 μg), Gγ2-Venus­(1–155)­(1 μg), and masGRK3ct-RLuc8 (1 μg) using polyethylenimine (PEI) in a 1:6 DNA/PEI ratio. The mixture was suspended in sterile NaCl, vortexed, and then incubated (10 min, RT), before being added to the cells in fresh antibiotic media DMEM (7 mL) supplemented with 10% FBS (v/v) and penicillin (50 units·mL^–1)- streptomycin (50 μg.mL^–1).
Cells were then incubated with coelenterazine H (NanoLight Technology) (10 μL/well, 50 μM, 5 min, RT) before ligands were added to the 96-well plate with final ligand concentrations ranging from (10 μM-0.01 nM). […] Cells were incubated in the plate reader, and luminescence was read using dual emission detection at 475 nm (Rluc8 Donor) and 535 nm emission (BRET signal) at 10 and 30 min. Plates were read on a PHERAstar (BMG Lab Tech), and data were exported through MARS and analyzed using Prism (GraphPad, Version 10).

[3] = target: T2, NOPr; test: TR-FRET equilibrium saturation binding, Lumi4Tb-SNAP-NOPr CHO membranes
Protocol: The levels of specific binding (total – nonspecific) were calculated and used to determine the dissociation constant (K D) as a measure of affinity.
For 13g-h, the homogeneous TR-FRET (HTRF) ratio [(acceptor λem (665 nM)/donor λem (620 nM) × 10000)] is plotted against ligand concentration (nM) for the total binding (solid circle) and nonspecific binding (NSB) (hollow circle). […] For end point saturation binding assays, data represent the mean ± SEM of n = 3 experiments performed in duplicate, and for kinetic binding studies, all data represent the mean of n = 3 experiments.
All ligands were prepared in TR-FRET buffer, consisting of Hanks’ Balanced Salt Solution (Sigma-Aldrich H6648) (KCl 5 mM, KH2PO4 0.4 mM, NaHCO3 4 mM, NaCl 137 mM, Na2HPO4 0.3 mM), Pluronic-F127 (0.02% w/v), DMSO (1% v/v), and glucose (1 mg.mL^–1), adjusted to pH 7.4. Membrane aliquots were thawed on ice prior to use, and membrane suspensions [membrane (0.05 μg.μL^–1), Gpp­(NH)p (100 μM), and saponin (50 μg.mL^–1)] were prepared in TR-FRET buffer. To ensure homogeneity, the membrane suspension was passed through a 27-gauge needle before use. Measurements were made in low-binding 384-well optiplates (PerkinElmer) on a PHERAstar (BMG Labtech) plate reader using the HTRF module [337 nm excitation with dual emission detection at 620 nm (terbium cryptate donor) and 665 nm emission (fluorescent ligand acceptor)] at a focal height of 11.4 mm. Integration was started 60 μs post irradiation (4 flashes/well) for 400 μs, all saturation and competition binding experiments were carried out in duplicate wells, and data were reported as the mean HTRF ratio ((acceptoremission/donoremission)×10,000) from 3 repeat measurements ±SEM.
Membrane solution (20 μL) was added, and the measurement was taken after a 2 h incubation at 37 °C. All data were converted to specific binding (total – nonspecific) and fitted using eq to determine K D. 2 HTRFratio×10,000=Bmax[FL]/(KD+[FL])

[4] = antagonist mode, inhibition of EC80 concentration of N/OFQ, n = 4 in duplicate, read-out: IC50 (converted)
[5] = antagonist mode, inhibition of EC80 concentration of N/OFQ, n = 4 in duplicate, read-out: pIC50 ± SEM (converted)
[6] = supplementary csv, GPA assay antagonist mode, read-out: NOP IC50 (converted)
[7] = IC50, antagonist mode, inhibition of EC80 concentration of N/OFQ, n = 4 in duplicate
[8] = NOP IC50 (nM), supplementary csv, GPA assay antagonist mode
[9] = NOP pIC50 ± SEM, supplementary csv, GPA assay antagonist mode
[10] = pIC50 ± SEM, antagonist mode, inhibition of EC80 concentration of N/OFQ, n = 4 in duplicate
[11] = supplementary csv, GPA assay antagonist mode, read-out: NOP pIC50 ± SEM (converted)

SMILES	IC50 [2, 4] [nM]	IC50 [2, 5] [nM]	IC50 [2, 6] [nM]	IC50 [2, 7] [nM]	IC50 [2, 9] [nM]	IC50 [2, 10] [nM]	IC50 [2, 11] [nM]	further results
CN1/C(=C/C=C/C=C/C2=[N+](CCCCCC(=O)NCCOc3ccc(C(=O)N4CCC[C@@H]4C(=O)NCCCN4CCC5(CC4)OCc4ccccc45)cc3)c3ccc(S(=O)(=O)[O-])cc3C2(C)C)C(C)(C)c2cc(S(=O)(=O)[O-])ccc21.[K+] [13f, Potassium 1-(6-((2-(4-((R)-2-((3-(3H-Spiro[isobenzofuran-1,4′-piperidin]-1′-yl)propyl)carbamoyl)pyrrolidine-1-carbonyl)phenoxy)ethyl)amino)-6-oxohexyl)-3,3-dimethyl-2-((1E,3E)-5-((E)-1,3,3-trimethyl-5-sulfonatoindolin-2-ylidene)penta-1,3-dien-1-yl)-3H-indol-1-ium-5-sulfonate]	–	–	–	–	–	–	–	fluorescent ligand binding (confocal images) [1]: Binding was observed
O=C(CCCCCNC(=O)COc1ccc(/C=C/C2=[N+]3C(=Cc4ccc(-c5cccs5)n4[B-]3(F)F)C=C2)cc1)NCCOc1ccc(CN2CCC[C@@H]2C(=O)NCCCN2CCC3(CC2)OCc2ccccc23)cc1 [14h, (R,E)-N-(3-(3H-Spiro[isobenzofuran-1,4′-piperidin]-1′-yl)propyl)-1-(4-(2-(6-(2-(4-(2-(5,5-Difluoro-7-(thiophen-2-yl)-5H-4λ^4,5λ^4-dipyrrolo[1,2-c:2′,1′-f][1,3,2]diazaborinin-3-yl)vinyl)phenoxy)acetamido)hexanamido)ethoxy)benzyl)pyrrolidine-2-carboxamide]	130	126	126	–	–	–	–	reduction in inhibitory potency from N-Boc congener to fluorescent ligand [2]: ≥ 20 fold; functional agonism at the NOPr ([2]; agonist mode, absence of N/OFQ): no functional agonism; specificity of labeling: displacement by SB-612111 / nonspecific labeling ([1]; 1 μM ligand, SB-612111 1 μM): significant nonspecific labeling
CC(C)(C)OC(=O)NCCC(=O)N1CCC[C@@H]1C(=O)NCCCN1CCC2(CC1)OCc1ccccc12 [11b, tert-Butyl (R)-(3-(2-((3-(3H-Spiro[isobenzofuran-1,4′-piperidin]-1′-yl)propyl)carbamoyl)pyrrolidin-1-yl)-3-oxopropyl)carbamate]	–	–	–	7800	7760	7940	–	IC50 [2, 8]: 7760 nM
CC(C)(C)OC(=O)NCCOc1ccc(CN2CCC[C@@H]2C(=O)NCCCN2CCC3(CC2)OCc2ccccc23)cc1 [11h, tert-Butyl (R)-(2-(4-((2-((3-(3H-Spiro[isobenzofuran-1,4′-piperidin]-1′-yl)propyl)carbamoyl)pyrrolidin-1-yl)methyl)phenoxy)ethyl)carbamate]	–	–	–	5.5	5.5	5.01	–	–
CC(C)(C)OC(=O)NCCOc1cccc(CN2CCC[C@@H]2C(=O)NCCCN2CCC3(CC2)OCc2ccccc23)c1 [11g, tert-Butyl (R)-(2-(3-((2-((3-(3H-Spiro[isobenzofuran-1,4′-piperidin]-1′-yl)propyl)carbamoyl)pyrrolidin-1-yl)methyl)phenoxy)ethyl)carbamate]	–	–	–	20	19.5	20	–	IC50 [2, 8]: 19.5 nM
CC(C)(C)OC(=O)NCCCC(=O)N1CCC[C@@H]1C(=O)NCCCN1CCC2(CC1)OCc1ccccc12 [11c, tert-Butyl (R)-(4-(2-((3-(3H-Spiro[isobenzofuran-1,4′-piperidin]-1′-yl)propyl)carbamoyl)pyrrolidin-1-yl)-4-oxobutyl)carbamate]	4900	5010	–	–	–	–	4900	–
C[C@H](NC(=O)OC(C)(C)C)C(=O)N1CCC[C@@H]1C(=O)NCCCN1CCC2(CC1)OCc1ccccc12 [11a, tert-Butyl ((S)-1-((R)-2-((3-(3H-Spiro[isobenzofuran-1,4′-piperidin]-1′-yl)propyl)carbamoyl)pyrrolidin-1-yl)-1-oxopropan-2-yl)carbamate]	–	–	–	11700	11700	12600	–	–
CC(C)(C)OC(=O)NCCCCC(=O)N1CCC[C@@H]1C(=O)NCCCN1CCC2(CC1)OCc1ccccc12 [11d, tert-Butyl (R)-(5-(2-((3-(3H-Spiro[isobenzofuran-1,4′-piperidin]-1′-yl)propyl)carbamoyl)pyrrolidin-1-yl)-5-oxopentyl)carbamate]	1200	1260	1230	–	–	–	1230	–
CN1/C(=C/C=C/C=C/C2=[N+](CCCCCC(=O)NCCOc3ccc(CN4CCC[C@@H]4C(=O)NCCCN4CCC5(CC4)OCc4ccccc45)cc3)c3ccc(S(=O)(=O)[O-])cc3C2(C)C)C(C)(C)c2cc(S(=O)(=O)[O-])ccc21.[K+] [13h, Potassium 1-(6-((2-(4-(((R)-2-((3-(3H-Spiro[isobenzofuran-1,4′-piperidin]-1′-yl)propyl)carbamoyl)pyrrolidin-1-yl)methyl)phenoxy)ethyl)amino)-6-oxohexyl)-3,3-dimethyl-2-((1E,3E)-5-((E)-1,3,3-trimethyl-5-sulfonatoindolin-2-ylidene)penta-1,3-dien-1-yl)-3H-indol-1-ium-5-sulfonate]	–	–	–	–	–	–	–	reduction in inhibitory potency from N-Boc congener to fluorescent ligand [2]: ≥ 20 fold; binding behaviour at the highest concentration tested ([3]; 400 nM): saturable binding with minimal nonspecific binding; higher affinity of 13h than 13g ([3]; saturation KD): 5 fold; fluorescent ligand binding (confocal images) [1]: more pronounced binding
CC(C)(C)OC(=O)NCCOc1cccc(C(=O)N2CCC[C@@H]2C(=O)NCCCN2CCC3(CC2)OCc2ccccc23)c1 [11e, tert-Butyl (R)-(2-(3-(2-((3-(3H-Spiro[isobenzofuran-1,4′-piperidin]-1′-yl)propyl)carbamoyl)pyrrolidine-1-carbonyl)phenoxy)ethyl)carbamate]	370	398	372	–	–	–	372	–
CN1/C(=C/C=C/C=C/C2=[N+](CCCCCC(=O)NCCOc3cccc(C(=O)N4CCC[C@@H]4C(=O)NCCCN4CCC5(CC4)OCc4ccccc45)c3)c3ccc(S(=O)(=O)[O-])cc3C2(C)C)C(C)(C)c2cc(S(=O)(=O)[O-])ccc21.[K+] [13e, Potassium 1-(6-((2-(3-((R)-2-((3-(3H-Spiro[isobenzofuran-1,4′-piperidin]-1′-yl)propyl)carbamoyl)pyrrolidine-1-carbonyl)phenoxy)ethyl)amino)-6-oxohexyl)-3,3-dimethyl-2-((1E,3E)-5-((E)-1,3,3-trimethyl-5-sulfonatoindolin-2-ylidene)penta-1,3-dien-1-yl)-3H-indol-1-ium-5-sulfonate]	–	–	–	–	–	–	–	fluorescent ligand binding (confocal images) [1]: Binding was observed
CC(C)(C)OC(=O)NCCOc1ccc(C(=O)N2CCC[C@@H]2C(=O)NCCCN2CCC3(CC2)OCc2ccccc23)cc1 [11f, tert-Butyl (R)-(2-(4-(2-((3-(3H-Spiro[isobenzofuran-1,4′-piperidin]-1′-yl)propyl)carbamoyl)pyrrolidine-1-carbonyl)phenoxy)ethyl)carbamate]	270	251	269	–	–	–	269	–
